Measurements: patent US11332485B2, “Penicillin-binding protein inhibitors” (priority 2017, dated 2022)
Like-named read-outs stand apart in the source and are kept apart here.

Key:
[1] = biological target: T1, PBP1b from Escherichia coli (Escherichia coli, UniProt P02919); experiment: Radioligand competition binding assay with 14C-labeled boronic acid probe (Example 96)
T1 construct: made in house
Excerpt: (§1) To determine the ability of boronic acid-based test PBP inhibitors to bind Penicillin Binding Proteins (PBPs), a radio-labelled boronic acid PBP inhibitor (Example 96) was used in competition binding assays to determine boronic acid PBP inhibitor binding to PBP1a or PBP1b from Escherichia coli. PBP1a and PBP1b were purified as described previously (Bertsche, U.; et al., J. Biol. Chem. 2005, 280 (45), 38096-38101; Born, P.; et al., J Biol. Chem. 2006. 281 (37), 26985-26993). To establish assay conditions for competition binding, an enzyme titration/saturation binding experiment was performed. Saturation binding was performed in a buffer comprised of 20 mM Tris (pH 7.5), 500 mM NaCl and 0.1% (v/v) TritonX-100, with PBP1a/PBP1b at a final concentration of 0.1 μM and 96 at final concentrations ranging from 0-100 μM. Mixtures were incubated for 60 minutes, then applied to Zeba Spin Desalting columns or plates (ThermoFisher Scientific) and centrifuged at 1000-1500×g for 2 minutes. The flow through, containing PBP bound with 96, was recovered and 100 μL mixed with 5 mL of UltimaGold liquid scintillation cocktail (Perkin Elmer), and the radioactivity counted using a Beckman Coulter LS 6500 Multipurpose scintillation counter. PBP binding of 96 approached saturation at 20 μM of ^14C-labeled probe. The competition binding assay was validated using the beta-lactam ampicillin, with 96 at a final concentration of 20 μM, PBP1a/PBP1b at a final concentration of 0.1 μM. PBP1a/PBP1b was incubated with ampicillin in a 96-well microplate for 60 minutes, then 96 was added and the mixtures incubated for an additional 60 minutes. The mixtures were then applied to Zeba Spin desalting plates and centrifuged at 1000×g for 2 minutes. The flow through was recovered and 100 μl mixed with 5 ml of UltimaGold liquid scintillation cocktail and the radioactivity counted. Ampicillin inhibited binding of 96 with an EC50 (the concentration of inhibitor required to reduce binding of 96 by 50%) of less than 0.5 μM. Binding assays with boronic acid PBP inhibitors were performed in an identical fashion. The potency of boronic acid PBP inhibitors was reported as the EC50 value.
(§2) Representative results are shown in Table 5, where A represents a potency of >100 μM, B represents a potency between 10 μM and 100 μM inclusive, and C represents a potency of <10 μM. NT=Not Tested.

[2] = biological target: T2, PBP1a from Escherichia coli (Escherichia coli, UniProt P02918); experiment: as above
T2 construct: made in house
T2 sequence (P02918 whole entry): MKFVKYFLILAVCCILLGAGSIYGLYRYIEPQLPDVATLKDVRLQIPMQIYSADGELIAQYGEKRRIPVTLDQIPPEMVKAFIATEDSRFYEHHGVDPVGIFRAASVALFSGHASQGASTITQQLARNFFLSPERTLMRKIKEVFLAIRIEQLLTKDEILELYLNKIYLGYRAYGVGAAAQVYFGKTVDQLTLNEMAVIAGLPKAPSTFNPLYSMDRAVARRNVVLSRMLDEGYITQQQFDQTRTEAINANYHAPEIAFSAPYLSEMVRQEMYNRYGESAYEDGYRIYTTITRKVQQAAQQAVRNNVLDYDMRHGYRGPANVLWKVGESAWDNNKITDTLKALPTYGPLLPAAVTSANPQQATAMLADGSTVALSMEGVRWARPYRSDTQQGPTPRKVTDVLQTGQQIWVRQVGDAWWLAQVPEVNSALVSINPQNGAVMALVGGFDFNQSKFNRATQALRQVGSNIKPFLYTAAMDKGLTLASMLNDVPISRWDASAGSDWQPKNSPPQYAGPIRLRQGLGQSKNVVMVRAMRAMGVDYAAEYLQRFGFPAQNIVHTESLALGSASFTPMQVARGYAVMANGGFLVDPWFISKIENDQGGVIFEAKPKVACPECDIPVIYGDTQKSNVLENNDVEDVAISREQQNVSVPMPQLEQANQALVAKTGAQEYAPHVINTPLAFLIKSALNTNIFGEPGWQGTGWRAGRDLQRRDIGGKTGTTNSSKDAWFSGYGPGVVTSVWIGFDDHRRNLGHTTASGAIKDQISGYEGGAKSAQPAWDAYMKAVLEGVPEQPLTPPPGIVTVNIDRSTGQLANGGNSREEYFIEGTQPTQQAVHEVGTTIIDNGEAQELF
Excerpt: as §1, §2

[3] = biological target: T3, PBP3 from Escherichia coli (Escherichia coli, UniProt P0AD68); experiment: Competition binding assay using Bodipy-FL boronic acid probe (Example 95); conditions: PBP3 3 μM, read-out: E. coli K12 PBP3 Potency
T3 construct: made in house
T3 sequence (P0AD68 1-577): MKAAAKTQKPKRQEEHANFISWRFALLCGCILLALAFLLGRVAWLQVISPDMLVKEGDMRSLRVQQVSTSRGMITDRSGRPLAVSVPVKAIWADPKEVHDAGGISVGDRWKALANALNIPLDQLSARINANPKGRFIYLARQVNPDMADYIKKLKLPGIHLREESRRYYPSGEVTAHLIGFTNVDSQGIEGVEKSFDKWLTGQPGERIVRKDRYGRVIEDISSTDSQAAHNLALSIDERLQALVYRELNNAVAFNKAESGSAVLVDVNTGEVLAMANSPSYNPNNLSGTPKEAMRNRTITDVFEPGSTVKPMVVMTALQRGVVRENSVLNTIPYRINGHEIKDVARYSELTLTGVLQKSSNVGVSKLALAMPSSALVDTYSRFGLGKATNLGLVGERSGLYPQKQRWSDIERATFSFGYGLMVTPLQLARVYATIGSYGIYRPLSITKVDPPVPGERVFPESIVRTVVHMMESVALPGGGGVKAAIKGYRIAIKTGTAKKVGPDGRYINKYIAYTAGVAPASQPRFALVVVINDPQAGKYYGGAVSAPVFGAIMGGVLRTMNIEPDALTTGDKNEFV
Description: PBP3 from Escherichia coli was cloned and purified as described previously (King, D. T, et al., ACS Infectious Diseases 2015, 1, 175-184). To establish assay conditions for competition binding, an enzyme titration/saturation binding experiment was performed. […] FP was measured immediately upon addition of PBP3 (Ex, Em), using a Cytation3 (BioTek) microplate reader and measured continuously for 60 minutes. […] The competition binding assay was validated using the beta-lactam ampicillin, with Bocillin-FL at a final concentration of 0.1 μM, PBP3 at a final concentration of 1.5 μM and concentrations of ampicillin from 0-1000 μM. […] Binding assays for boronic acid PBP inhibitors were performed in an identical fashion. Representative results are shown in Table 3, where A represents a potency of >500 μM, B represents a potency between 30 μM and 500 μM inclusive, and C represents a potency of <30 μM. NT=Not Tested.
The method described in Example II was adapted to use a Bodipy-labeled boronic acid PBP inhibitor (Example 13 or Example 95) to assess PBP3 potency of boronic acid PBP inhibitors. The method is identical to that described in Example II for the Bocillin-FL competition binding assay, with the following exceptions: PBP3 from Escherichia coli is used at a final concentration of 3 μM. […]

[4] = biological target: T3, PBP3 from Escherichia coli; experiment: Fluorescence polarization competition binding assay with Bocillin-FL
Procedure, shortened: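 Fluorescence polarization competition assay with Bocillin-FL at 0.1 μM final and purified E. coli PBP3 at 1.5 μM final in 50 mM Hepes pH 8.0, 300 mM NaCl, 5% glycerol. Inhibitor preincubated with PBP3 for 30 min before probe addition; FP then read continuously for 60 min. Potency reported in binned categories.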

[5] = test system: S. aureus ATCC 29213; experiment: Broth microdilution MIC assay; type: cell-based; conditions: Staphylococcus aureus, ATCC29213; broth microdilution, 16-20 hours at 37° C.; read-out: S. aureus 29213 MIC
Procedure, shortened: (§3)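 Two-fold serial dilutions tested per CLSI in cation-supplemented Mueller-Hinton broth against S. aureus ATCC 29213 and hyper-permeable E. coli 901C; inoculum 5×10^5 CFU/mL from 3-5 h log-phase culture. Incubated 16-20 h at 37° C; MIC read visually as lowest concentration with no growth.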

[6] = test system: hyper-permeable E. coli 901C; experiment: Broth microdilution MIC assay; type: cell-based; conditions: Escherichia coli, read-out: E. coli 901C MIC
Procedure, shortened: as §3

[7] = test system: E. coli DH5α/pLBII; experiment: Broth microdilution MIC assay, empty vector control strain; type: cell-based; conditions: Escherichia coli, read-out: E. coli DH5α/pLBII Microbiological Activity (MIC)
Procedure, shortened: (§4)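 CLSI broth microdilution in cation-supplemented Mueller-Hinton broth, 2-fold compound dilutions, 5×10^5 CFU/mL inoculum, 16-20 h at 37° C, MIC read visually as lowest concentration without growth. E. coli DH5α carries CTX-M15 on pLBII under Lac promoter, or empty pLBII as control.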

[8] = test system: E. coli DH5α/pLBII-CTX-M15; experiment: Broth microdilution MIC assay, engineered strain producing CTX-M15; type: cell-based, Escherichia coli; conditions: Escherichia coli, read-out: E. coli DH5α/pLBII-CTX-M15 Microbiological Activity (MIC)
Procedure, shortened: as §4

[9] = test system: E. coli PBP1b; experiment: Bocillin FL competition binding assay (SDS-PAGE gel, membrane PBPs); set-up: species or system Escherichia coli; conditions: 15 min. pre-incubation, membrane protein extracts, SDS-PAGE fluorescence scan
Description: (§5) To determine the ability of test compounds to bind Penicillin Binding Proteins (PBPs), a competition binding assay using Bocillin FL (fluorescent derivative of penicillin V) was adapted from the classical method used to assess PBP potency of beta-lactams.
Penicillin binding proteins were isolated from Escherichia coli K12 by growth of Escherichia coli K12 from a single colony in 4 L of Luria-Bertani (LB) broth at 35° C. and 250 rpm to an OD600 nm of 0.5. The cells were harvested by centrifugation at 7,000×g for 10 min. at 4° C. Cells were resuspended and washed in 50 mM potassium phosphate pH 7.5. […] The membrane proteins are washed twice with 10 mM sodium phosphate pH 7, resuspended in a volume of 5 mL, quantitated by BCA assay, adjusted to 10 μg/mL and frozen at −80° C. until use.
The adapted Bocillin FL competition binding assay described herein incorporates a 15 min. pre-incubation of test compound with isolated PBPs to attempt to balance the difference in mechanism of inhibition between beta-lactams (largely irreversible covalent bond to active site Serine) and the boron-containing PBP inhibitor test compounds (reversible covalent bond to active site Serine). […] The SDS-PAGE gel, post-electrophoresis, is then washed in water to remove excess SDS for 10 minutes at room temperature and placed on the scanning bed of a GE Healthcare/Amersham Biosciences Storm 860 fluorescence scanner. […]

[10] = biological target: T4, E. coli PBP3 (Escherichia coli, UniProt P0AD68); experiment: as above; conditions: 15 min. pre-incubation, membrane protein extracts, SDS-PAGE fluorescence scan
T4 construct: 100 μg's of total membrane protein extracts containing PBPs; endogenous in cells; host or cells: Escherichia coli K12 membrane fraction
T4 sequence (P0AD68 1-577): as above
Description: as §5
(§6) Penicillin binding proteins were isolated from Escherichia coli K12 by growth of Escherichia coli K12 from a single colony in 4 L of Luria-Bertani (LB) broth at 35° C. and 250 rpm to an OD600 nm of 0.5. The cells were harvested by centrifugation at 7,000×g for 10 min. at 4° C. Cells were resuspended and washed in 50 mM potassium phosphate pH 7.5. The cells were re-suspended in sonication buffer [50 mM Tris-HCl pH 7.5, 1 mM MgCl2, 1 mM beta-mercaptoethanol, and 5 μg/mL DNAse I] and sonicated by 4 passes of 30 seconds at 45 W on ice. The sample was clarified by centrifugation at 3,000×g to remove cell debris and unbroken cells and supernatant containing the membrane proteins was retained. The membrane proteins including the PBPs were further purified from soluble constituents by an ultracentrifugation step at 100,000×g for 30 min. at 4° C. The membrane proteins are washed twice with 10 mM sodium phosphate pH 7, resuspended in a volume of 5 mL, quantitated by BCA assay, adjusted to […] and frozen at −80° C. until use.
(§7) The adapted Bocillin FL competition binding assay described herein incorporates a 15 min. pre-incubation of test compound with isolated PBPs to attempt to balance the difference in mechanism of inhibition between beta-lactams (largely irreversible covalent bond to active site Serine) and the boron-containing PBP inhibitor test compounds (reversible covalent bond to active site Serine). Briefly, 50 μL reactions consisted of 100 μg's of total membrane protein extracts containing PBPs incubated with a dilution series of test compound ranging from 0.005 μg/mL to 2,480 μg/mL in 10 mM sodium phosphate pH7 containing 350 mM NaCl. Thirty minute reactions at 35° C. were initiated by addition of […] Bocillin FL, quenched by addition of SDS-PAGE loading buffer containing sodium dodecyl sulfate (SDS) and heated for 15 minutes at 95° C. to denature proteins in preparation for SDS-polyacrylamide gel electrophoresis. The Bocillin FL labeled PBPs are then separated by SDS-PAGE in Novex NuPage 10% Bis-Tris pre-cast gels (Invitrogen). The SDS-PAGE gel, post-electrophoresis, is then washed in water to remove excess SDS for 10 minutes at room temperature and placed on the scanning bed of a GE Healthcare/Amersham Biosciences Storm 860 fluorescence scanner. […] Effective PBP inhibitors are detected by a reduction in Bocillin FL labeling of the particular PBP over the dose range of test compound in a dose-responsive manner. […]

[11] = biological target: T5, E. coli K12 PBP1a (Escherichia coli, UniProt P02918); experiment: as above; conditions: 15 min. pre-incubation, membrane protein extracts, SDS-PAGE fluorescence scan
T5 construct: 100 μg's of total membrane protein extracts containing PBPs; endogenous in cells; host or cells: Escherichia coli K12 membrane fraction
T5 sequence (P02918 whole entry): as the sequence (P02918 whole entry) above
Description: as §5, §6, §7

[12] = PBP1a/PBP1b 0.1 μM, 96 at 20 μM, assay validation, read-out: EC50 (concentration of inhibitor required to reduce binding of 96 by 50%)

T1 sequence (P02919 whole entry): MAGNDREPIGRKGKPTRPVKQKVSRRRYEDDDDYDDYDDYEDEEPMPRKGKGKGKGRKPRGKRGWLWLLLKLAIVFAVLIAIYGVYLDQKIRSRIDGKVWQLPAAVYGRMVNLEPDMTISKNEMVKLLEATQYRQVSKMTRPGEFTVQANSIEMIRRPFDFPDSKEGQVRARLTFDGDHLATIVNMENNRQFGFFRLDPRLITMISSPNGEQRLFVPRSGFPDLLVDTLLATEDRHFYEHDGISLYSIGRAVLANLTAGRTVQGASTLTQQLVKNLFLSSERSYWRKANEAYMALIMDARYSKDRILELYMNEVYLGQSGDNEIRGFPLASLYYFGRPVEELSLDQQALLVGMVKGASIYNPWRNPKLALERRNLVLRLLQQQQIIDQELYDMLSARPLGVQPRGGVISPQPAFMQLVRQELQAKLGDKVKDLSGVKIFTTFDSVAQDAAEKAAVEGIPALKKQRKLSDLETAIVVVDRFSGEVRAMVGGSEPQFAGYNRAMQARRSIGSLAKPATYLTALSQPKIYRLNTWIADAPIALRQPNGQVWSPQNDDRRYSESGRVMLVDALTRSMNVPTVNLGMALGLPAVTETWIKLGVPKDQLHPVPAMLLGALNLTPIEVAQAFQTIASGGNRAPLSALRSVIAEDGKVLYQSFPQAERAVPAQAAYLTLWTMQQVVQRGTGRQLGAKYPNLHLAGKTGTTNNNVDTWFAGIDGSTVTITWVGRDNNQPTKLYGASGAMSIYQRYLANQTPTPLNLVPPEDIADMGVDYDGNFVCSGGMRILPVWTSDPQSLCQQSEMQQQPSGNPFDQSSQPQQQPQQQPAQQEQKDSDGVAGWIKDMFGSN

Row | Compound | EC50 ([1]; 14C-labeled probe 96 at 20 μM, PBP 0.1 μM, read-out: E. coli K12 PBP1b EC50) | EC50 [1, 12] | EC50 ([2]; 14C-labeled probe 96 at 20 μM, PBP 0.1 μM, read-out: E. coli K12 PBP1a EC50) | EC50 [2, 12] | EC50 [3] | EC50 [4] | MIC [5] | MIC [6] | MIC [7] | MIC [8] | E. coli PBP1b Potency [9] | E. coli PBP3 Potency [10] | E. coliK12 PBP1a Potency [11]
1 | CC1(C)S[C@@H]2[C@H](NC(=O)[C@H](N)c3ccccc3)C(=O)N2[C@H]1C(=O)O [ampicillin, reference compound] | < 10000 nM | < 500 nM | < 10000 nM | < 500 nM | < 10000 nM | 1400 nM | – | – | – | – | – | – | –
2 | N[C@H](C(=O)N[C@H]1Cc2cccc(C(=O)O)c2OB1O)c1ccccc1 [Example 3, (R)-3-((S)-2-amino-2-phenylacetamido)-2-hydroxy-3,4-dihydro-2H-benzo[e][1,2]oxaborinine-8-carboxylic acid] | – | – | – | – | – | – | > 128 µg/mL | 64 to 128 µg/mL | 128 to 256 µg/mL | 128 to 256 µg/mL | A (A represents a potency of >1000 μg/mL) | A (A represents a potency of >1000 μg/mL) | B (B represents a potency between 64 and 1000 μg/mL inclusive)
